Drawing on PubChem BioAssay (NCI), this text covers TGI for 16 molecules.

Each structure is given as a SMILES string.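 Cells were grown in 96-well plates and exposed to each compound for 48 hours at five concentrations; endpoints were interpolated linearly between bracketing concentrations, or set to the highest concentration if not reached. TGI: concentration producing complete growth inhibition.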

The first test concerns SF-539 CNS. As to the kind of experiment: inhibition of tumour cell growth, NCI panel, 48 h.
Molecule `O=c1c2c(-c3ccccc3)onc2n(-c2ccccc2)c(=O)n1-c1ccccc1` gave a TGI greater than 100 µM.

The test system of the next test is SK-MEL-5 melanoma. The experiment in a line: inhibition of tumour cell growth, NCI panel, 48 h.
The molecule `CC(CCC#N)(CCC#N)C(=O)CC(O)(C(F)(F)F)C(F)(F)F` yielded a TGI of 28.5 µM.
`Cc1c(O)c(C)c2c(C)cn(C(=O)C(C)(C)C)c2c1C` gave a TGI of 27.8 µM.
As to `COc1ccc(-c2c(C#N)c(O)n(NS(=O)(=O)c3ccc(C)cc3)c(=O)c2C#N)cc1`, the TGI is greater than 100 µM.
For the molecule `O=C1C[C@H]2[C@@H](O1)[C@@H](O)CN1C(=O)c3ccccc3[C@H]21`, the TGI is greater than 100 µM.
The molecule `CSc1nncc2[nH]c(C)nc12` came in with a TGI greater than 100 µM.
In turn, `COc1ccc(OC)c(N2C(=O)CSC2c2cc(OC)c(OC)c(OC)c2)c1` (stereo unspecified) had a TGI greater than 100 µM.
As to `COc1ccc(C(OC(C)=O)C2C(=C(C#N)C#N)c3ccccc3C2=C(C#N)C#N)cc1` (stereo unspecified), the TGI is greater than 100 µM.
`CCOC(=O)C1=C(N)Oc2ccc(Br)cc2C1C(C#N)C(=O)OCC` (stereo unspecified) showed a TGI of 42.6 µM.
Turning to `CC(=O)Nc1ccc(-c2nc3ccccc3s2)cc1`, the TGI is greater than 100 µM.
In turn, `COc1ccc(-c2nc(SCC(=O)N/N=C/c3ccc(O)c(OC)c3)[nH]c2-c2ccc(OC)cc2)cc1` showed a TGI of 31.7 µM.
`CCOP(=O)(O)C(C)(C)NC`: the TGI was greater than 100 µM.
Take `CC(/C=N\NC(=S)N1CCCCC1)=N/NC(=S)N1CCCCC1`: the TGI is 3.86 µM.
With `Cc1ccc(C(=O)N/N=C(\N=Nc2ccccc2[N+](=O)[O-])c2ccc(N(C)C)cc2)cc1`, the TGI was greater than 100 µM.
`CC1C[C@]2(C)C(=O)Nc3ccccc3[C@@H]2Nc2ccccc21` (stereo partly specified) yielded a TGI of 31.3 µM.
Regarding `CC(C)(C)C(=O)OC(N)/C=C/c1ccccc1` (stereo unspecified), the TGI was greater than 100 µM.
With `O=c1c2c(-c3ccccc3)onc2n(-c2ccccc2)c(=O)n1-c1ccccc1`, the TGI was greater than 100 µM.

The next test has as its system SK-OV-3 ovarian. The experiment in a line: inhibition of tumour cell growth, NCI panel, 48 h.
The molecule `CC(CCC#N)(CCC#N)C(=O)CC(O)(C(F)(F)F)C(F)(F)F` gave a TGI greater than 100 µM.
Regarding `Cc1c(O)c(C)c2c(C)cn(C(=O)C(C)(C)C)c2c1C`, the TGI turned out to be 42.8 µM.
Take `COc1ccc(-c2c(C#N)c(O)n(NS(=O)(=O)c3ccc(C)cc3)c(=O)c2C#N)cc1`: the TGI is greater than 100 µM.
`O=C1C[C@H]2[C@@H](O1)[C@@H](O)CN1C(=O)c3ccccc3[C@H]21`: the TGI is greater than 100 µM.
In turn, `CSc1nncc2[nH]c(C)nc12` returned a TGI greater than 100 µM.
On to `COc1ccc(OC)c(N2C(=O)CSC2c2cc(OC)c(OC)c(OC)c2)c1` (stereo unspecified), for which the TGI was greater than 100 µM.
Molecule `COc1ccc(C(OC(C)=O)C2C(=C(C#N)C#N)c3ccccc3C2=C(C#N)C#N)cc1` (stereo unspecified) registered a TGI of 62.8 µM.
`CCOC(=O)C1=C(N)Oc2ccc(Br)cc2C1C(C#N)C(=O)OCC` (stereo unspecified): the TGI was found to be 47.1 µM.
`CC(=O)Nc1ccc(-c2nc3ccccc3s2)cc1` showed a TGI of 59.5 µM.
For the molecule `COc1ccc(-c2nc(SCC(=O)N/N=C/c3ccc(O)c(OC)c3)[nH]c2-c2ccc(OC)cc2)cc1`, the TGI is greater than 100 µM.
As for `CCOP(=O)(O)C(C)(C)NC`, the TGI was greater than 100 µM.
`CC(/C=N\NC(=S)N1CCCCC1)=N/NC(=S)N1CCCCC1` displayed a TGI of 6.08 µM.
In turn, `Cc1ccc(C(=O)N/N=C(\N=Nc2ccccc2[N+](=O)[O-])c2ccc(N(C)C)cc2)cc1` returned a TGI greater than 100 µM.
On to `CC(C)(C)C(=O)OC(N)/C=C/c1ccccc1` (stereo unspecified), for which the TGI is greater than 100 µM.
`O=c1c2c(-c3ccccc3)onc2n(-c2ccccc2)c(=O)n1-c1ccccc1` gave a TGI greater than 100 µM.

The subject of a further test is SN12C renal. The experiment in a line: inhibition of tumour cell growth, NCI panel, 48 h.
`CC(CCC#N)(CCC#N)C(=O)CC(O)(C(F)(F)F)C(F)(F)F`: the TGI stood at 23.5 µM.
Consider `Cc1c(O)c(C)c2c(C)cn(C(=O)C(C)(C)C)c2c1C`, for which the TGI came to 31.8 µM.
`COc1ccc(-c2c(C#N)c(O)n(NS(=O)(=O)c3ccc(C)cc3)c(=O)c2C#N)cc1` had a TGI greater than 100 µM.
Regarding `O=C1C[C@H]2[C@@H](O1)[C@@H](O)CN1C(=O)c3ccccc3[C@H]21`, the TGI is greater than 100 µM.
`CSc1nncc2[nH]c(C)nc12` gave a TGI greater than 100 µM.
`COc1ccc(OC)c(N2C(=O)CSC2c2cc(OC)c(OC)c(OC)c2)c1` (stereo unspecified) displayed a TGI greater than 100 µM.
With `CCOC(=O)C1=C(N)Oc2ccc(Br)cc2C1C(C#N)C(=O)OCC` (stereo unspecified), the TGI is greater than 100 µM.
`COc1ccc(-c2nc(SCC(=O)N/N=C/c3ccc(O)c(OC)c3)[nH]c2-c2ccc(OC)cc2)cc1` displayed a TGI of 41.1 µM.
Same read-out and setting: as for `CCOP(=O)(O)C(C)(C)NC`, the figure is greater than 100 µM; as for `CC(/C=N\NC(=S)N1CCCCC1)=N/NC(=S)N1CCCCC1`, 10.8 µM; as for `Cc1ccc(C(=O)N/N=C(\N=Nc2ccccc2[N+](=O)[O-])c2ccc(N(C)C)cc2)cc1`, greater than 100 µM.
For the molecule `CC1C[C@]2(C)C(=O)Nc3ccccc3[C@@H]2Nc2ccccc21` (stereo partly specified), the TGI was found to be 37.6 µM.
In the case of `CC(C)(C)C(=O)OC(N)/C=C/c1ccccc1` (stereo unspecified), the TGI is greater than 100 µM.
The molecule `O=c1c2c(-c3ccccc3)onc2n(-c2ccccc2)c(=O)n1-c1ccccc1` came in with a TGI greater than 100 µM.

For another test, the system named is SNB-75 CNS. As to the kind of experiment: inhibition of tumour cell growth, NCI panel, 48 h.
`CC(CCC#N)(CCC#N)C(=O)CC(O)(C(F)(F)F)C(F)(F)F` returned a TGI of 34.5 µM.
Take `Cc1c(O)c(C)c2c(C)cn(C(=O)C(C)(C)C)c2c1C`: the TGI was determined as 34.1 µM.
As for `COc1ccc(-c2c(C#N)c(O)n(NS(=O)(=O)c3ccc(C)cc3)c(=O)c2C#N)cc1`, the TGI is greater than 100 µM.
In turn, `O=C1C[C@H]2[C@@H](O1)[C@@H](O)CN1C(=O)c3ccccc3[C@H]21` yielded a TGI greater than 100 µM.
In the case of `CSc1nncc2[nH]c(C)nc12`, the TGI is greater than 100 µM.
Molecule `COc1ccc(C(OC(C)=O)C2C(=C(C#N)C#N)c3ccccc3C2=C(C#N)C#N)cc1` (stereo unspecified) showed a TGI greater than 100 µM.
For `CCOC(=O)C1=C(N)Oc2ccc(Br)cc2C1C(C#N)C(=O)OCC` (stereo unspecified), the TGI is greater than 100 µM.
As to `CC(=O)Nc1ccc(-c2nc3ccccc3s2)cc1`, the TGI was determined as 90.9 µM.
On the same count and under the same terms, as for `COc1ccc(-c2nc(SCC(=O)N/N=C/c3ccc(O)c(OC)c3)[nH]c2-c2ccc(OC)cc2)cc1`, the figure is greater than 100 µM.
`CC(/C=N\NC(=S)N1CCCCC1)=N/NC(=S)N1CCCCC1`: the TGI is 8.08 µM.
In turn, `CC1C[C@]2(C)C(=O)Nc3ccccc3[C@@H]2Nc2ccccc21` (stereo partly specified) returned a TGI greater than 100 µM.
In turn, `CC(C)(C)C(=O)OC(N)/C=C/c1ccccc1` (stereo unspecified) came in with a TGI greater than 100 µM.
Still for that read-out and setting: as for `O=c1c2c(-c3ccccc3)onc2n(-c2ccccc2)c(=O)n1-c1ccccc1`, the figure is 84.2 µM.

In a further test the test system is T-47D breast. The experiment in a line: inhibition of tumour cell growth, NCI panel, 48 h.
`CC(CCC#N)(CCC#N)C(=O)CC(O)(C(F)(F)F)C(F)(F)F` displayed a TGI of 16.2 µM.
`Cc1c(O)c(C)c2c(C)cn(C(=O)C(C)(C)C)c2c1C` gave a TGI of 90 µM.
`O=C1C[C@H]2[C@@H](O1)[C@@H](O)CN1C(=O)c3ccccc3[C@H]21` registered a TGI greater than 100 µM.
With `CSc1nncc2[nH]c(C)nc12`, the TGI is greater than 100 µM.
For `COc1ccc(C(OC(C)=O)C2C(=C(C#N)C#N)c3ccccc3C2=C(C#N)C#N)cc1` (stereo unspecified), the TGI was greater than 100 µM.
As for `CCOC(=O)C1=C(N)Oc2ccc(Br)cc2C1C(C#N)C(=O)OCC` (stereo unspecified), the TGI came out at 53.1 µM.
Regarding `CC(=O)Nc1ccc(-c2nc3ccccc3s2)cc1`, the TGI is greater than 100 µM.
`COc1ccc(-c2nc(SCC(=O)N/N=C/c3ccc(O)c(OC)c3)[nH]c2-c2ccc(OC)cc2)cc1` showed a TGI greater than 100 µM.
In the case of `CCOP(=O)(O)C(C)(C)NC`, the TGI is greater than 100 µM.
Molecule `CC1C[C@]2(C)C(=O)Nc3ccccc3[C@@H]2Nc2ccccc21` (stereo partly specified) had a TGI greater than 100 µM.
In turn, `CC(C)(C)C(=O)OC(N)/C=C/c1ccccc1` (stereo unspecified) yielded a TGI greater than 100 µM.
In the case of `O=c1c2c(-c3ccccc3)onc2n(-c2ccccc2)c(=O)n1-c1ccccc1`, the TGI is greater than 100 µM.
